# Experimental data as given in patent publication US20180273531A1, “PYRIMIDINE COMPOUND AND MEDICAL USE THEREOF” (Japan Tobacco Inc., priority 2004, published 2018).
# System: colorectal cancer cell line HT-29 cells
# Experiment: Growth inhibitory effect against cancer cell lines (3H-thymidine uptake), HT-29
# Assay type: cell-based
# Settings: Homo sapiens, HT-29, inhibition of 3H-thymidine uptake; test substance 18 hrs, then 3H-thymidine 6 hrs; triplicate
# Method: Renal cancer cell line ACHN cell or colorectal cancer cell line HT-29 cells were cultured in a 96 well plate at 1.0×10^4 cells/90 μL/well for 24 hrs, then a test substance dissolved in DMSO (dimethyl sulfoxide) was added. After 18 hrs, ^3H-thymidine (0.25 μCi/well) was added and the cells were cultured for 6 hrs. Using a cell harvester, the cells were recovered on a UniFilter-96 GF/B glass filter and the ^3H radioactivity uptaken by the cells was measured by TopCount (Packard). As a control, DMSO was used and the activity of the test substance was expressed in the concentration (IC50) necessary for inhibiting ^3H radioactivity uptaken by the cell to 50% of that of the control group. The measurements were made in triplicate.
row,IC50 [µM],SMILES
1,0.1 to 1,Cn1c(=O)cc(Nc2ccc(Br)cc2F)c2c(=O)n(C3CC3)c(=O)n(-c3cccc(CCCN4CCCCC4)c3)c21 [Example 1-255]
2,0.1 to 1,COc1ccc(Nc2cc(=O)n(C)c3c2c(=O)n(C2CC2)c(=O)n3-c2ccccc2)cc1 [Example 1-129]
3,0.1 to 1,COc1ccc(Nc2cc(=O)n(C)c3c2c(=O)n(C2CC2)c(=O)n3-c2ccccc2)c(Br)c1 [Example 1-211]
4,0.1 to 1,CC(=O)Nc1ccc(-n2c(=O)n(C3CC3)c(=O)c3c(Nc4ccc(Br)cc4F)n(C)c(=O)c(C)c32)cc1 [Example 4-4]
5,0.01 to 0.1,Cn1c(=O)cc(Nc2ccc(Br)cc2F)c2c(=O)n(C3CC3)c(=O)n(-c3cccc(NS(=O)(=O)CCN)c3)c21 [Example 1-313]
6,0.01 to 0.1,CN(C)CCCc1cccc(-n2c(=O)n(C3CC3)c(=O)c3c(Nc4ccc(Br)cc4F)cc(=O)n(C)c32)c1 [Example 1-252]
7,0.01 to 0.1,COc1ccc(-n2c(=O)n(C3CC3)c(=O)c3c(Nc4ccc(I)cc4F)n(C)c(=O)c(C)c32)cc1NC(C)=O [Example 4-63]
8,0.1 to 1,Cn1c(=O)cc(Nc2ccc(CC(F)F)cc2)c2c(=O)n(C3CC3)c(=O)n(-c3ccccc3)c21 [Example 1-326]
9,0.1 to 1,Cn1c(=O)cc(Nc2ccc(Br)cc2F)c2c(=O)n(C3CC3)c(=O)n(-c3cccc(CCC(=O)O)c3)c21 [Example 1-201]
10,0.1 to 1,COc1cccc(-n2c(=O)n(C3CC3)c(=O)c3c(Nc4ccc(Br)cc4)cc(=O)n(C)c32)c1 [Example 1-190]
11,0.1 to 1,Cn1c(=O)cc(Nc2ccc(C(F)(F)F)cc2)c2c(=O)n(C3CC3)c(=O)n(-c3ccccc3)c21 [Example 1-273]
12,0.01 to 0.1,CN(C)CCCOc1cccc(-n2c(=O)n(C3CC3)c(=O)c3c(Nc4ccc(Br)cc4F)cc(=O)n(C)c32)c1 [Example 1-227]
13,0.1 to 1,CCCc1ccc(Nc2cc(=O)n(C)c3c2c(=O)n(C2CC2)c(=O)n3-c2ccccc2)c(F)c1 [Example 1-258]
14,0.1 to 1,CC(C)c1ccc(Nc2cc(=O)n(C)c3c2c(=O)n(C2CC2)c(=O)n3-c2ccccc2)cc1 [Example 1-229]
15,0.01 to 0.1,Cn1c(=O)cc(Nc2ccc(Br)cc2F)c2c(=O)n(C3CC3)c(=O)n(-c3cccc(NC(=O)CCO)c3)c21 [Example 1-305]
16,0.1 to 1,CC(=O)N(c1cccc(-n2c(=O)n(C3CC3)c(=O)c3c(Nc4ccc(I)cc4F)n(C)c(=O)c(C)c32)c1)S(C)(=O)=O [Example 4-133]
17,0.1 to 1,CCCCC(=O)NCCC(=O)Nc1cccc(-n2c(=O)n(C3CC3)c(=O)c3c(Nc4ccccc4F)n(C)c(=O)c(C)c32)c1 [Example 4-13]
18,0.01 to 0.1,CNC(=O)c1cccc(-n2c(=O)n(C3CC3)c(=O)c3c(Nc4ccc(Br)cc4F)cc(=O)n(C)c32)c1 [Example 1-292]
19,0.1 to 1,Cn1c(=O)cc(Nc2ccc(Br)cc2F)c2c(=O)n(C3CC3)c(=O)n(-c3cccc(N4CCCC4)c3)c21 [Example 1-215]
20,0.1 to 1,Cn1c(=O)cc(Nc2ccc(Br)cc2F)c2c(=O)n(C3CC3)c(=O)n(-c3cccc(OCCN4CCCCC4)c3)c21 [Example 1-234]
21,0.1 to 1,C=CCn1c(=O)c2c(Nc3ccc(N(C)C)cc3)cc(=O)n(C)c2n(-c2ccccc2)c1=O [Example 1-140]
22,0.1 to 1,Cc1c(=O)n(C)c(Nc2ccc(I)cc2F)c2c(=O)n(CCCO)c(=O)n(-c3cccc(NS(C)(=O)=O)c3)c12 [Example 4-145]
23,0.01 to 0.1,Cn1c(=O)cc(Nc2ccc(Br)cc2F)c2c(=O)n(C3CC3)c(=O)n(-c3cccc(N4CCCCC4=O)c3)c21 [Example 1-214]
24,0.1 to 1,Cn1c(=O)cc(Nc2ccc(Br)cc2F)c2c(=O)n(C3CC3)c(=O)n(-c3cccc(N4CCCCC4)c3)c21 [Example 1-216]
25,0.1 to 1,Cn1c(=O)cc(Nc2ccc(Br)cc2F)c2c(=O)n(C3CC3)c(=O)n(-c3cccc(NCCN)c3)c21 [Example 1-334]

row,IC50 [µM],SMILES
1,0.1 to 1,CC(=O)Nc1cccc(-n2c(=O)n(CCCO)c(=O)c3c(Nc4ccc(I)cc4F)n(C)c(=O)c(C)c32)c1 [Example 4-135]
2,0.01 to 0.1,Cn1c(=O)cc(Nc2ccc(Cl)cc2F)c2c(=O)n(C3CC3)c(=O)n(-c3ccccc3)c21 [Example 1-171]
3,0.01 to 0.1,CN(C)CC(=O)Nc1cccc(-n2c(=O)n(C3CC3)c(=O)c3c(Nc4ccc(Br)cc4F)cc(=O)n(C)c32)c1 [Example 1-277]
4,0.01 to 0.1,CCn1c(=O)c2c(Nc3ccc(Br)cc3F)cc(=O)n(C)c2n(-c2ccccc2)c1=O [Example 1-164]
5,0.1 to 1,Cc1c(=O)n(C)c(Nc2ccc(I)cc2F)c2c(=O)n(CCCO)c(=O)n(-c3ccccc3)c12 [Example 4-147]
6,0.1 to 1,Cn1c(=O)cc(Nc2ccc(Br)cc2F)c2c(=O)n(C3CC3)c(=O)n(-c3ccc(S(C)(=O)=O)cc3)c21 [Example 1-225]
7,0.1 to 1,CC(=O)N(C(C)=O)c1cccc(-n2c(=O)n(C3CC3)c(=O)c3c(Nc4ccc(I)cc4F)n(C)c(=O)c(C)c32)c1 [Example 4-140]
8,0.1 to 1,COc1cc(Br)ccc1Nc1cc(=O)n(C)c2c1c(=O)n(C1CC1)c(=O)n2-c1ccccc1 [Example 1-189]
9,0.1 to 1,Cc1c(=O)n(C)c(Nc2ccc(I)cc2F)c2c(=O)n(CCCO)c(=O)n(-c3cccc(NC(=O)CO)c3)c12 [Example 4-148]
10,0.1 to 1,Cn1c(=O)cc(Nc2ccc(Br)cc2F)c2c(=O)n(C3CC3)c(=O)n(-c3cccc(OCCN4CCCC4)c3)c21 [Example 1-233]
11,0.1 to 1,Cc1c(=O)n(C)c(Nc2ccc(Br)cc2)c2c(=O)n(CCO)c(=O)n(-c3ccccc3)c12 [Example 4-85]
12,0.1 to 1,CC(=O)Nc1cccc(-n2c(=O)n(C3CC3)c(=O)c3c(Nc4ccc(C5CCCC5)cc4F)n(C)c(=O)c(C)c32)c1 [Example 4-57]
13,0.1 to 1,CC(=O)N(c1cccc(-n2c(=O)n(C3CC3)c(=O)c3c(Nc4ccc(I)cc4F)n(C)c(=O)c(C)c32)c1)S(=O)(=O)N(C)C [Example 4-138]
14,0.1 to 1,CCN(C)c1ccc(Nc2cc(=O)n(C)c3c2c(=O)n(C2CC2)c(=O)n3-c2ccccc2)c(F)c1 [Example 1-217]
15,0.1 to 1,CC(=O)Nc1cccc(-n2c(=O)n(C3CC3)c(=O)c3c(Nc4ccccc4F)n(C)c(=O)c(C)c32)c1 [Example 4-7]
16,0.1 to 1,COc1ccccc1-n1c(=O)n(C2CC2)c(=O)c2c(Nc3ccc(Br)cc3)cc(=O)n(C)c21 [Example 1-159]
17,0.01 to 0.1,Cn1c(=O)cc(Nc2ccc(Br)cc2F)c2c(=O)n(C3CC3)c(=O)n(-c3cccc(S(N)(=O)=O)c3)c21 [Example 1-288]
18,0.01 to 0.1,CN(C)C(=O)Nc1cccc(-n2c(=O)n(C3CC3)c(=O)c3c(Nc4ccc(Br)cc4F)cc(=O)n(C)c32)c1 [Example 1-324]
19,0.1 to 1,CCc1ccc(Nc2cc(=O)n(C)c3c2c(=O)n(C2CC2)c(=O)n3-c2ccccc2)cc1 [Example 1-230]
20,0.1 to 1,CN1CCN(CCCOc2cccc(-n3c(=O)n(C4CC4)c(=O)c4c(Nc5ccc(Br)cc5F)cc(=O)n(C)c43)c2)CC1 [Example 1-236]
21,0.1 to 1,Cc1c(=O)n(C)c(Nc2ccc(I)cc2F)c2c(=O)n(CCCO)c(=O)n(-c3ccc4oc(=O)[nH]c4c3)c12 [Example 4-146]
22,0.01 to 0.1,CCc1ccc(Nc2c3c(=O)n(C4CC4)c(=O)n(-c4ccc(NC(C)=O)cc4)c3c(C)c(=O)n2C)c(F)c1 [Example 4-75]
23,0.1 to 1,CCn1c(=O)c2c(Nc3ccc(Br)cc3F)cc(=O)n(C)c2n(-c2cccnc2)c1=O [Example 1-244]
24,0.1 to 1,CCN(CC)CCOc1cccc(-n2c(=O)n(C3CC3)c(=O)c3c(Nc4ccc(Br)cc4F)cc(=O)n(C)c32)c1 [Example 1-235]
25,0.1 to 1,CN1CCN(c2cccc(-n3c(=O)n(C4CC4)c(=O)c4c(Nc5ccc(Br)cc5F)cc(=O)n(C)c43)c2)CC1 [Example 1-206]

# System: p15 protein
# Experiment: Evaluation of p15 induction activity (Western blotting)
# Assay type: cell-based
# Settings: test substance 0.1 μM, 24 hrs, ACHN cells or HT-29 cells, compared to DMSO, n=2
# Method: ACHN cells or HT-29 cells were cultured in a 6 well plate at 2.5×10^5 cells/1.8 mL/well for 24 hrs, then a test substance (0.1 μM) dissolved in DMSO was added. After 24 hrs, cells were detached using trypsin-EDTA (ethylene diamine tetraacetic acid) and solubilized with NuPAGE LDS sample buffer (Invitrogen). Using an RC DC protein assay kit (BIO-RAD), the protein concentration of the sample was quantitated, and a sample in an amount corresponding to 10 μg of BSA (bovine serum albumin) was analyzed by Western blotting using an anti-p15 antibody. The density of the band stained with the anti-p15 antibody was measured by a densitometer to quantify the amount of p15 protein. As a control, DMSO was used and the test was performed with n=2 and the average protein amount was determined.
row,SMILES,fold induction at 0.1 µM
1,CCCC(CCC)c1ccc(Nc2cc(=O)n(C)c3c2c(=O)n(-c2ccccc2)c(=O)n3-c2ccccc2)cc1 [Example 1-40],≥ 1.5
2,CC(C)n1c(=O)c2c(Nc3ccc(Cl)cc3)cc(=O)n(C)c2n(-c2ccccc2)c1=O [Example 1-81],≥ 1.5
3,CCn1c(=O)c2c(Nc3ccc(Br)cc3)cc(=O)n(C)c2n(-c2cccnc2)c1=O [Example 1-131],≥ 1.5
4,Cn1c(=O)cc(Nc2ccc(C(=O)O)cc2)c2c(=O)n(-c3ccccc3)c(=O)n(-c3ccccc3)c21 [Example 1-37],≥ 1.5
5,Cc1cc(Cl)ccc1Nc1cc(=O)n(C)c2c1c(=O)n(-c1ccccc1)c(=O)n2-c1ccccc1 [Example 1-53],≥ 1.5
6,Cn1c(=O)cc(Nc2ccc(Cl)c(Cl)c2)c2c(=O)n(-c3ccccc3)c(=O)n(-c3ccccc3)c21 [Example 1-17],≥ 1.5
7,Cn1c(=O)cc(Nc2ccc(Cl)cc2)c2c(=O)n(-c3ccc(F)cc3)c(=O)n(-c3ccc(F)cc3)c21 [Example 1-79],≥ 1.5
8,Cn1c(=O)cc(Nc2ccc(Br)cc2)c2c(=O)n(C3CCC3)c(=O)n(-c3ccccc3)c21 [Example 1-107],≥ 1.5
9,Cn1c(=O)c2c(Nc3ccc(Cl)cc3)cc(=O)n(C)c2n(-c2ccccc2)c1=O [Example 1-35],≥ 1.5
